From ChEMBL document CHEMBL5726429, “Inhibitors of lysine specific demethylase-1” (2017)
pIC50: −log10 of the molar value.

Target: Lysine-specific histone demethylase 1A (Homo sapiens, UniProt O60341)
Assay: In Vitro Enzyme Inhibition Assay: The enzymatic assay of LSD1 activity is based on Time Resolved-Fluorescence Resonance Energy Transfer (TR-FRET) detection. The inhibitory properties of compounds to LSD1 were determined in 384-well plate format under the following reaction conditions: 0.1-0.5 nM LSD1, 50 nM H3K4mel-biotin labeled peptide (Anaspec cat # 64355), 2 μM FAD in assay buffer of 50 mM …

Cn1c(N2CCC(N)CC2)nc(-c2ccc(C#N)c(F)c2)c(Cl)c1=O
pIC50: > 7.00
